From publication PMC2231820 (The Journal of General Physiology, 2000)
Positions count from the first letter of the chain named. Where two headings read alike, the source gives them in different places. Each block holds one compound with its values, some of them ahead of it.

Columns and labels:
[1] = target: T1, rat olfactory (Rolf) CNG channel, α homomultimer (Rattus norvegicus, UniProt Q00195); assay type: cell-based; settings: for Hill coefficient n of cGMP activation: six patches
T1 sequence (Q00195 1-664): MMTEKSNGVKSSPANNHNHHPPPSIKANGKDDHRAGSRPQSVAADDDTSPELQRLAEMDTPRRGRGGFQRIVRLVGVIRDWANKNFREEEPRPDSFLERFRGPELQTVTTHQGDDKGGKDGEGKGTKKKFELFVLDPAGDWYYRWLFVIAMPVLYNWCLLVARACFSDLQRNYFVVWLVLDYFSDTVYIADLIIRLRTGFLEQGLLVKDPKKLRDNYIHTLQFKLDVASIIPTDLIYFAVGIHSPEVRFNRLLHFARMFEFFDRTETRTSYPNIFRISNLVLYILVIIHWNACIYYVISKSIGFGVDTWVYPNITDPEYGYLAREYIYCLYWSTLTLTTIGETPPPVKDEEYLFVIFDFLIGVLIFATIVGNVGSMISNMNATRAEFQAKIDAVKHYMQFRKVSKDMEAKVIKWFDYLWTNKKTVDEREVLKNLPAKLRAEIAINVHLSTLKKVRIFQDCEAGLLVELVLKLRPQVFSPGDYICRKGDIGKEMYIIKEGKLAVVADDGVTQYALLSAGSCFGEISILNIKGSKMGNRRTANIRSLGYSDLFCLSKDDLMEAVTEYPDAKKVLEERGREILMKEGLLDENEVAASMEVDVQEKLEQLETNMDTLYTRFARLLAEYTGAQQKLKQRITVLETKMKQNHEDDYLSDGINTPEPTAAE

[2] = target: T2, Rolf G204E CNG channel (Rattus norvegicus, UniProt Q00195, G204E); assay type: cell-based; settings: for Hill coefficient n of cGMP activation: 2 patches
T2 sequence (Q00195 1-664 G204E): T1 sequence (Q00195 1-664) with G204E

[3] = target: T3, Rolf G204D CNG channel (Rattus norvegicus, UniProt Q00195, G204D); assay type: cell-based
T3 sequence (Q00195 1-664 G204D): T1 sequence (Q00195 1-664) with G204D

[4] = target: T4, bovine rod (Brod) CNG channel, α homomultimer (Bos taurus, UniProt Q00194); settings: saturating 2 mM cGMP, ref Crary et al. 2000; cited from earlier work
T4 sequence (Q00194 1-690): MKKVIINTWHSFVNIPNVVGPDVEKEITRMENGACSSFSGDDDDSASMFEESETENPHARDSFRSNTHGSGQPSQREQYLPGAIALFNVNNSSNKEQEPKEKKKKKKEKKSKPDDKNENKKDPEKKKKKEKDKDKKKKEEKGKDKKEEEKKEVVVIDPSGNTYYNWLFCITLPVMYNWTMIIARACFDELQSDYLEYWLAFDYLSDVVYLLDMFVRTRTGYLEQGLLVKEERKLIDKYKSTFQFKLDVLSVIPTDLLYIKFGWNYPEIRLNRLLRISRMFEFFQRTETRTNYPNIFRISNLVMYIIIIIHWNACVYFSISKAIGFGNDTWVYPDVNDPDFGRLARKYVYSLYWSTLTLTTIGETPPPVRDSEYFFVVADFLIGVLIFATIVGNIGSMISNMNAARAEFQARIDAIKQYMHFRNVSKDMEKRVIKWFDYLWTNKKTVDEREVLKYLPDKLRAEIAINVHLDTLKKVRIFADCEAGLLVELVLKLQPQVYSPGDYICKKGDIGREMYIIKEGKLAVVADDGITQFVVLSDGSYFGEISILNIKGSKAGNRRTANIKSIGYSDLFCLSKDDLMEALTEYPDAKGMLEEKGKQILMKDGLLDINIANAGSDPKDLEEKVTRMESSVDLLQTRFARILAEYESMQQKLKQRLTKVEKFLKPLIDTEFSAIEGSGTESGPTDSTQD

[5] = target: T1, rat olfactory (Rolf) CNG channel, α homomultimer; settings: saturating 100 μM cGMP, ref Crary et al. 2000; cited from earlier work
[6] = read-out: Percent inhibition by tetracaine

IC50 [1]: 140 µM | inhibition at 40 µM [1, 6]: 10.4% | inhibition at 40 µM [2, 6]: 76.4% | IC50 [3]: 10.8 µM
Compound: CCCCNc1ccc(C(=O)OCCN(C)C)cc1 [Tetracaine, tetracaine]

Hill coefficient n of cGMP activation ([1]; Rolf, +100 mV): 2.8 | Hill coefficient n of cGMP activation ([1]; Rolf, −100 mV): 2.8 | Hill coefficient n of cGMP activation ([2]; Rolf G204E, +100 mV): 1.7 | Hill coefficient n of cGMP activation ([2]; Rolf G204E, −100 mV): 1.7
Compound: Nc1nc2c(ncn2[C@@H]2O[C@@H]3COP(=O)(O)O[C@H]3[C@H]2O)c(=O)[nH]1 [cGMP]

decrease of maximal current by DAG ([1]; Rolf, 1.5 μM DAG, saturating 100 μM cGMP): 14% | inhibition of cGMP-activated current by DAG (in words) ([1]; Rolf, 12 μM DAG, saturating cGMP): only partial inhibition | DAG maximal percent inhibition (INmax) ([2]; Rolf G204E, saturating 100 μM cGMP): 100% | DAG concentration that fully suppresses cGMP-activated currents ([2]; Rolf G204E, saturating cGMP): ~3 µM
Compound: diacylglycerol [DAG]
DAG maximal percent inhibition (INmax) [4]: 100% | Hill coefficient n of DAG inhibition [4]: 1.7 | DAG maximal percent inhibition (INmax) [5]: 31%
